Results from patent US20250296953A1, “3,4-THIAZOLO-STEROIDS AND METHODS OF MAKING AND USING THE SAME” (Arkansas State University - Jonesboro, priority 2018, published 2025).
Like-named read-outs stand apart in the source and are kept apart here.

Assays:
[1] = system: 60 different human tumor cell lines; conditions: five dose
gliosarcoma (SF-539) = assay: NCI 60 five dose screen
glioblastoma (SF-295) = assay: NCI 60 five dose screen
NCI-H522 (NSCLC) = assay: NCI 60 one dose screen; type: cell-based, human; conditions: Non-small Cell Lung Cancer
SF-295 = assay: NCI 60 one dose screen; type: cell-based, human; conditions: one dose; CNS Cancer; SF-295

## C[C@]12CC[C@H]3[C@@H](CC=C4c5sc(-c6ccc(O)cc6)nc5CC[C@@]43C)[C@@H]1CC[C@@H]2O [III.5, (1S,2R,13R,14S,17S,18S)-7-(4-hydroxyphenyl)-2,18-dimethyl-8-thia-6-azapentacyclo[11.7.0.02,10.05,9.014,18]icosa-5(9),6,10-trien-17-ol]
[1]; 786-0 (Renal Cancer)
  TGI: 2.39E−6
[1]; A498 (Renal Cancer)
  TGI: 2.13E−5
[1]; A549/ATCC (Non-small Cell Lung Cancer)
  TGI: >1.00E−4
[1]; ACHN (Renal Cancer)
  TGI: >1.00E−4
[1]; BT-549 (Breast Cancer)
  TGI: 1.94E−5
[1]; CAKI-1 (Renal Cancer)
  TGI: >1.00E−4
[1]; CCRF-CEM (Leukemia)
  TGI: 4.72E−5
[1]; COLO 205 (Colon Cancer)
  TGI: >1.00E−4
[1]; DU-145 (Prostate Cancer)
  TGI: >1.00E−4
[1]; EKVX (Non-small Cell Lung Cancer)
  TGI: >1.00E−4
[1]; HCC-2998 (Colon Cancer)
  TGI: >1.00E−4
[1]; HCT-15 (Colon Cancer)
  TGI: 2.07E−5
[1]; HCT-116 (Colon Cancer)
  TGI: 2.74E−5
[1]; HL-60(TB) (Leukemia)
  TGI: >1.00E−4
[1]; HOP-62 (Non-small Cell Lung Cancer)
  TGI: 5.05E−5
[1]; HS 578T (Breast Cancer)
  TGI: 6.01E−5
[1]; HT29 (Colon Cancer)
  TGI: 2.04E−5
[1]; IGROV1 (Ovarian Cancer)
  TGI: >1.00E−4
[1]; K-562 (Leukemia)
  TGI: >1.00E−4
[1]; KM12 (Colon Cancer)
  TGI: >1.00E−4
[1]; LOX IMVI (Melanoma)
  TGI: 1.46E−5
[1]; M14 (Melanoma)
  TGI: 2.93E−5
[1]; MALME-3M (Melanoma)
  TGI: >1.00E−4
[1]; MCF7 (Breast Cancer)
  TGI: 2.15E−5
[1]; MDA-MB-231/ATCC (Breast Cancer)
  TGI: 3.29E−5
[1]; MDA-MB-435 (Melanoma)
  TGI: >1.00E−4
[1]; MDA-MB-468 (Breast Cancer)
  TGI: 4.16E−5
[1]; MOLT-4 (Leukemia)
  TGI: >1.00E−4
[1]; NCI-H23 (Non-small Cell Lung Cancer)
  TGI: >1.00E−4
[1]; NCI-H226 (Non-small Cell Lung Cancer)
  TGI: >1.00E−4
[1]; NCI-H322M (Non-small Cell Lung Cancer)
  TGI: >1.00E−4
[1]; NCI-H460 (Non-small Cell Lung Cancer)
  TGI: >1.00E−4
[1]; NCI-H522 (Non-small Cell Lung Cancer)
  TGI: >1.00E−4
[1]; NCI/ADR-RES (Ovarian Cancer)
  TGI: >1.00E−4
[1]; OVCAR-3 (Ovarian Cancer)
  TGI: 8.37E−5
[1]; OVCAR-4 (Ovarian Cancer)
  TGI: >1.00E−4
[1]; OVCAR-5 (Ovarian Cancer)
  TGI: >1.00E−4
[1]; OVCAR-8 (Ovarian Cancer)
  TGI: >1.00E−4
[1]; RXF 393 (Renal Cancer)
  TGI: 1.31E−6
[1]; SF-268 (CNS Cancer)
  TGI: >1.00E−4
[1]; SK-MEL-2 (Melanoma)
  TGI: 6.94E−5
[1]; SK-MEL-5 (Melanoma)
  TGI: 1.31E−5
[1]; SK-MEL-28 (Melanoma)
  TGI: 6.60E−5
[1]; SK-OV-3 (Ovarian Cancer)
  TGI: >1.00E−4
[1]; SN12C (Renal Cancer)
  TGI: >1.00E−4
[1]; SNB-19 (CNS Cancer)
  TGI: >1.00E−4
[1]; SNB-75 (CNS Cancer)
  TGI: 2.57E−5
[1]; SW-620 (Colon Cancer)
  TGI: >1.00E−4
[1]; T-47D (Breast Cancer)
  TGI: >1.00E−4
[1]; TK-10 (Renal Cancer)
  TGI: >1.00E−4
[1]; U251 (CNS Cancer)
  TGI: 6.73E−5
[1]; UACC-62 (Melanoma)
  TGI: 7.64E−6
[1]; UACC-257 (Melanoma)
  TGI: >1.00E−4
[1]; UO-31 (Renal Cancer)
  TGI: 2.04E−5
Gliosarcoma (SF-539); Homo sapiens, SF-539
  GI50: 0.454 µM
Gliosarcoma (SF-539); Homo sapiens, SF-539, read-out: LC50
  CC50: 91.7 µM
Gliosarcoma (SF-539); SF-539 (CNS Cancer), five dose
  TGI: 3.23E−6
Glioblastoma (SF-295); Homo sapiens, SF-295
  GI50: 0.413 µM
Glioblastoma (SF-295); Homo sapiens, SF-295, read-out: LC50
  CC50: 8.2 µM
Glioblastoma (SF-295); SF-295 (CNS Cancer), five dose
  TGI: 2.03E−6
NCI-H522 (NSCLC)
  Growth Percent: 41.21%
SF-295
  Growth Percent: −36.24%
